Activity calls are given as the source filed them. The rule behind the calls is not given here.
Test system: M. tuberculosis H37Rv growth inhibition with meropenem
Assay: dose response, H37Rv, with and without meropenem (AID 434987);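 note: growth over 7 days at 37 °C before Alamar Blue read on day 9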
[1] = M. tuberculosis H37Rv growth inhibition, measured here: IC50 without meropenem
[2] = M. tuberculosis H37Rv growth inhibition, measured here: IC90 without meropenem
[3] = measured here: IC90 with meropenem

Compound	IC50	IC50 [1]	IC90 [2]	IC90 [3]
COc1cc(NC(=S)NC(=O)c2ccco2)ccc1NC(=O)C(C)C	99.6 µM (inactive)	> 100 µM	> 100 µM	> 100 µM
CCOC(=O)c1nn(-c2ccccc2)c(C#N)c1NC(=O)c1nn(CC)cc1Br	> 100 µM (inactive)	> 100 µM	> 100 µM	> 100 µM
O=C(Nc1ccccc1-c1ccccc1)C12CC3CC(CC(C3)C1)C2	> 100 µM (inactive)	> 100 µM	> 100 µM	> 100 µM
Cc1ccc(Cn2c(C(C)Nc3nc(-c4ccc(Cl)cc4)cs3)nc3cc(C(=O)NCCCO)ccc32)cc1 (stereo not drawn)	73.5 µM (inactive)	67.3 µM	86.4 µM	> 100 µM
O=C(c1csc2c1CCCC2)n1cccn1	49.4 µM (inactive)	97.3 µM	> 100 µM	> 100 µM
O=C(Nc1ccc(Cl)cc1Cl)C1=Cc2ccccc2OC1	> 100 µM (inactive)	> 100 µM	> 100 µM	> 100 µM
COC(=O)c1c(C(=O)OC)c(C)n(Cc2ccco2)c1C	64.4 µM (inactive)	> 100 µM	> 100 µM	> 100 µM
COc1cc(OC)c(OC)cc1/C=C1\CCC(C2CCCC2)C1=O (stereo not drawn)	55.9 µM (inactive)	77.5 µM	> 100 µM	> 100 µM
C[C@H](NC(=O)c1[nH]cnc1C(=O)Nc1cccc(Cl)c1)c1ccccc1	3.59 µM	> 100 µM	> 100 µM	> 100 µM
CCc1ccc(NC(=S)Nc2ccc(S(=O)(=O)Nc3ncccn3)cc2)cc1	61.4 µM (inactive)	> 100 µM	> 100 µM	> 100 µM
OCCCn1c(C2CCCN2c2nc(-c3ccc(Cl)cc3)cs2)nc2cc(Cl)c(Cl)cc21 (stereo not drawn)	> 100 µM (inactive)	> 100 µM	> 100 µM	> 100 µM
CCCc1c(C)nc2c(OC)cccc2c1SCC(=O)O	> 100 µM (inactive)	> 100 µM	> 100 µM	> 100 µM
O=C1c2cccc3c(N4CCCCC4)ccc(c23)C(=O)N1c1ccccn1	84.8 µM (inactive)	> 100 µM	> 100 µM	> 100 µM
O=C(O)CCC/C=C\C[C@@H]1[C@@H](/C=C/[C@@H](O)COc2cccc(Cl)c2)[C@H](O)C[C@@H]1O	> 100 µM (inactive)	> 100 µM	> 100 µM	> 100 µM
O=C(COC(=O)c1ccc(Cl)cc1[N+](=O)[O-])NNC(=O)c1cccs1	24.8 µM (inactive)	39.4 µM	53.9 µM	51.1 µM
COc1ccc(/C=N/Nc2nc(-c3ccc(C)cc3)c(NC(C)=O)s2)cc1OC	> 100 µM (inactive)	> 100 µM	> 100 µM	> 100 µM
Cc1ccc(S(=O)(=O)N[C@H](C(=O)OCn2nnc3ccccc3c2=O)C(C)C)cc1	> 100 µM (inactive)	> 100 µM	> 100 µM	> 100 µM
CCN(Cc1ccncc1)C(=O)C(CO)c1ccccc1 (stereo not drawn)	> 100 µM (inactive)	> 100 µM	> 100 µM	> 100 µM
CCOc1ccc(NC(=O)/C(C#N)=C/c2cn(CC(=O)O)c3ccccc23)cc1	95.9 µM (inactive)	> 100 µM	> 100 µM	> 100 µM

Compound	IC50	IC50 [1]	IC90 [2]	IC90 [3]
N#Cc1ccc(C23CC4(C2)[C@H](CN(Cc2cccnc2)[C@@H]4c2ccccc2)C3c2ccccc2)cc1 (stereo partly drawn)	56.2 µM (inactive)	72.8 µM	> 100 µM	> 100 µM
Cc1ccccc1/C=N\NC(=O)c1csnn1	21.6 µM	> 100 µM	> 100 µM	> 100 µM
Cc1ccsc1/C=N/Nc1ncc(Cl)cc1Cl	8.81 µM	50.9 µM	> 100 µM	> 100 µM
CCOC(=O)COc1ccc2nsnc2c1	23.5 µM (inactive)	27 µM	> 100 µM	26 µM
COc1ccc(S(=O)(=O)N(C(=O)c2ccncc2)c2ccc3oc4c(c3c2)CCCC4)cc1	99 µM (inactive)	94.7 µM	> 100 µM	> 100 µM
CN1C(=O)/C(=C/c2ccc(C(=O)NC3CCCC3)cc2)Oc2ccccc21	> 100 µM (inactive)	> 100 µM	> 100 µM	> 100 µM
COc1ccc(C2(CNC(=O)c3cc([N+](=O)[O-])cc([N+](=O)[O-])c3)CCCC2)cc1OC	1.43 µM (inactive)	1.86 µM	3 µM	1.61 µM
COc1ccc(-c2csc(NC(=O)c3c(C)noc3C)n2)cc1	25.9 µM	> 100 µM	> 100 µM	> 100 µM
Cc1c(C=O)c(C=O)c(C)n1Cc1ccccc1	31.9 µM (inactive)	52 µM	> 100 µM	69.3 µM
CCCC1=C/C(=C/c2ccc(-c3ccccc3OC)o2)C(=O)O1	29.3 µM (inactive)	55.5 µM	> 100 µM	> 100 µM
CC1(C)Cc2c(C#N)c(SCc3ccccc3)nc(N3CCOCC3)c2CO1	> 100 µM (inactive)	> 100 µM	> 100 µM	> 100 µM
COC(=O)c1c(CSc2cccc(C)c2)noc1C(=O)NCc1ccco1	> 100 µM (inactive)	> 100 µM	> 100 µM	> 100 µM
Cn1c(=O)c(C(=O)COC(=O)c2cc(C3CC3)nc3ccccc23)c(N)n(Cc2ccccc2)c1=O	> 100 µM (inactive)	> 100 µM	> 100 µM	> 100 µM
O=C(Nc1cccc(Cl)c1N1CCOCC1)c1ccc([N+](=O)[O-])o1	0.909 µM	11 µM	> 100 µM	38.2 µM
CCCCn1nc2cc(C(=O)NCC34CC5CC(CC(C5)C3)C4)ccc2c1OCC	55.5 µM (inactive)	> 100 µM	> 100 µM	> 100 µM
CN(C)c1ccc(/C=C/c2nc3ccccc3s2)cc1	8.97 µM	> 100 µM	> 100 µM	> 100 µM
Nc1c(C(=O)N2CCCC2)sc2nc3c(cc12)CCCCCC3	19.4 µM	92.2 µM	> 100 µM	> 100 µM
O=C(C1=C[C@H](c2ccc(Br)cc2)C[C@H](OCCCCO)O1)N1CCN(Cc2ccc3c(c2)OCO3)CC1	49.4 µM (inactive)	65.3 µM	88 µM	> 100 µM
O=c1oc(-c2cccs2)nc2sc3c(c12)CCC3	93 µM (inactive)	> 100 µM	> 100 µM	> 100 µM

Compound	IC50	IC50 [1]	IC90 [2]	IC90 [3]
CCCCCC(=O)Nc1cccc(C2=NOC3(C2)C[C@@H](C(N)=O)N(C(=O)CC(c2ccccc2)c2ccccc2)C3)c1 (stereo partly drawn)	51.6 µM (inactive)	> 100 µM	> 100 µM	> 100 µM
CCOC(=O)c1[nH]c2ccccc2c1NC(=O)Nc1ccc(OC)cc1	> 100 µM (inactive)	> 100 µM	> 100 µM	> 100 µM
CCOC(=O)C1CCN(C(=O)CCCCn2c(=O)[nH]c3ccccc3c2=O)CC1	> 100 µM (inactive)	> 100 µM	> 100 µM	> 100 µM
Cc1ccc(C(=O)NCC2(c3ccccc3)CCCC2)cc1	75.3 µM (inactive)	> 100 µM	> 100 µM	> 100 µM
O=C(NC1CCCC1)c1ccccc1OCc1ccccc1	5.69 µM	37.6 µM	> 100 µM	> 100 µM
Cc1ccc(C(=O)N2CCC3(CC2)Oc2ccc(F)cc2C(=O)C32CC(c3cccnc3)=NO2)s1 (stereo not drawn)	97.5 µM (inactive)	94.9 µM	> 100 µM	> 100 µM
COc1ccc2sc(-c3ccc(N(C)C)cc3)c(C#CC(C)(C)O)c2c1	19.8 µM	> 100 µM	> 100 µM	> 100 µM
Cc1ccc(/C=N/NC(=O)c2cccs2)s1	> 100 µM (inactive)	> 100 µM	> 100 µM	> 100 µM
Cc1ccccc1OCC(=O)Nc1ccccc1N1CCOCC1	51.3 µM (inactive)	> 100 µM	> 100 µM	> 100 µM
CCn1c2ccccc2c2cc(NC(=O)c3cccc(OC)c3OC)ccc21	> 100 µM (inactive)	> 100 µM	> 100 µM	> 100 µM
COc1ccc2nc(NC(=O)c3ccc(Br)s3)sc2c1	> 100 µM (inactive)	> 100 µM	> 100 µM	> 100 µM
C=CCOc1ccc(C2N3CC4(C)CN2CC(CCC)(C3)C4=O)cc1 (stereo not drawn)	> 100 µM (inactive)	> 100 µM	> 100 µM	> 100 µM
O=C1NC(=O)N(Cc2ccco2)C(=O)/C1=C\c1ccc(-c2ccc(F)cc2)o1	80.7 µM (inactive)	84.5 µM	> 100 µM	> 100 µM
CCn1c(=O)c2cc(C(=O)N(C)c3ccccc3F)sc2c2ccccc21	29.2 µM	> 100 µM	> 100 µM	> 100 µM
CCOC(=O)c1cnn(-c2ncnc3sc4c(c23)CCC4)c1N	23.6 µM	> 100 µM	> 100 µM	> 50 µM
O=C(Oc1c(-c2ccccc2Cl)oc2ccccc2c1=O)c1ccc(Cl)cc1	11 µM	47.5 µM	> 100 µM	> 50 µM
Cc1nn(C)c(C)c1NC(=O)CCCSc1nc(-c2ccco2)cc(C(F)(F)F)n1	> 100 µM (inactive)	> 100 µM	> 100 µM	> 100 µM
CCCCC12CN3CC(C)(CN(C1)C3c1ccc([N+](=O)[O-])o1)C2=O (stereo not drawn)	4.12 µM	27 µM	98.7 µM	23.5 µM
Cc1cc2ccccn2c1C(=O)c1ccc([N+](=O)[O-])o1	> 100 µM (inactive)	> 100 µM	> 100 µM	> 100 µM

From PubChem BioAssay AID434987 (Southern Research Specialized Biocontainment Screening …, 2010)
